In US20120270774A1, “MACROCYCLIC COMPOUNDS, COMPOSITIONS COMPRISING THEM AND METHODS FOR PREVENTING OR TREATING HIV INFECTION” (Yissum Research Development Company of the Hebrew …, priority 2009, published 2012):

Key:
HIV-1 strand HXB2 = assay: HIV-1 infection inhibition, MAGI assay; type: cell-based; details: for effect on HIV-1 infection (in words): MAGI assay, cultured cells, μM range
Protocol: Hela cells were obtained from ATCC, (Manassas, Va., USA) and then grown in 75 cm2 flasks with approximately 0.5×10^6 cells/flask at 37° C. in 5% CO2 atmosphere and at a relative humidity of 95%. The culture growth medium consisted of Dulbecco's Modified Eagle Medium (DMEM) supplemented with 10% heat-inactivated fetal bovine serum (FBS), 1% nonessential amino acids. The medium was replaced every other day. Titration of HIV-1 strand HXB2 in the absence or presence of the inhibitor was carried out by the multinuclear activation of a galactosidase indicator (MAGI) assay, similarly to the procedure described by Kimpton and […] (Virol. 66, 2232, 1992). Briefly, HeLa-CD4+beta-gal cells were transferred into 96-well plates at 15×10^3 cells per well. On the following day, the cells were infected with 50 μl of serially diluted virus in the presence of […] of DEAE-dextran (Pharmacia, Sweden). Two days post-infection, cultured cells were fixed with 1% formaldehyde and 0.2% glutaraldehyde in PBS. Following intensive wash with PBS, cells were stained with a solution of 4 mM potassium ferrocyanide, 4 mM potassium ferricyanide, 2 mM MgCl2 and 0.4 mg/ml of X-Gal (Ornat, Israel). Blue cells were counted under a light microscope. According to a slightly different procedure, the assay consisted of CD4 expressing Hela P4 cells containing the β-galactosidase reporter gene placed downstream […]. the HIV-LTR promotor. These cells were seeded 24 hours prior to viral infection at a density of 5×10^5 […] in 24 well culture plates (TPP model by Beyneix). 50 μL of virus solution prepared from CEM infected cells' supernatant, were incubated for 1 hour with the assayed peptides at the required concentrations, at 4° C. 10 μg of anti CD4 monoclonal antibodies 13B8.2 or […] were used as control. After incubation the virus solution was diluted to a total volume of 1 ml and was added to the Hela P4 cells. The cells were incubated at these conditions for 3 days after which their infection rate was assayed according to the β-galactosidase activity in the cells extract. The cells were washed well, harvested and disintegrated in a buffer containing 60 mM Na2HPO4, 40 mM NaH2PO4, 10 mM KCl, 1 mM MgSO4, 50 mM β-mercaptoethanol, 2.5 mM EDTA, 0.125% NP40, 0.125% triton, 20% glycerol, 0.2 mM PMSF and 100 U/ml approtinin. The cells extract was cleaned by centrifuge at 4° C. for 15 min at 13,000 rpm. β-galactosidase activity was determined by incubation of 150 μL of total cell extract at 37° C. for 2 hours in the presence of 6 mM ONPG (O-Nitrophenyl-β-D-galactopyranoside) in a buffer containing 80 mM Na2HPO4, 1 mM β-mercaptoethanol and 10 m MMgCl2, followed by absorption measurement at 410 nm. The β-galactosidase activity was normalized according to the total protein quantity in the assay.

[1] = Pharmacokinetic profile of CG-1 following IV and PO administration
Protocol: Rats were kept in a light-controlled room (light from 7:00 to 19:00) and were maintained on laboratory chow and water ad libitum.
The pharmacokinetic profile of CG-1 was studied following intravenous (IV) and per-os (PO) administration to rats. Studies were performed in conscious Wistar male rats. An indwelling cannula was implanted into the left jugular vein 24 hours before the pharmacokinetic experiment to allow full recovery of the animals from the surgical procedure. Animals (n=5) received an intravenous (IV) bolus dose of 1 mg/kg of CG-1 or 10 mg/kg by oral gavage (n=5), CG-1 was dissolved in water. […] Plasma was separated by centrifugation (4000 g, 5 min, 4° C.) and stored at −70° C. pending analysis. A non-compartmental pharmacokinetic approach was used to compare pharmacokinetic profiles obtained following different modes of administration and to calculate bioavailability values. All calculations were performed utilizing WinNonlin® 5.0.1 software (Pharsight Corporation, Mountain View, Calif., USA).
Non-compartmental pharmacokinetic analysis was performed using WinNonlin software, standard.

[2] = Pharmacokinetics of oral CG-1 with or without ritonavir
Protocol: The pharmacokinetic profile of CG-1 was studied following intravenous (IV) and per-os (PO) administration to rats. Studies were performed in conscious Wistar male rats. An indwelling cannula was implanted into the left jugular vein 24 hours before the pharmacokinetic experiment to allow full recovery of the animals from the surgical procedure. Animals (n=5) received an intravenous (IV) bolus dose of 1 mg/kg of CG-1 or 10 mg/kg by oral gavage (n=5), CG-1 was dissolved in water. […] CG-1 administration. Plasma was separated by centrifugation (4000 g, 5 min, 4° C.) and stored at −70° C. pending analysis. A non-compartmental pharmacokinetic approach was used to compare pharmacokinetic profiles obtained following different modes of administration and to calculate bioavailability values. All calculations were performed utilizing WinNonlin® 5.0.1 software (Pharsight Corporation, Mountain View, Calif., USA).
The pharmacokinetic tests were repeated as above with the addition of ritonavir to the oral administration of CG-1. The study included three groups; the first group received 10 mg/kg of CG-1 in aqueous solution, the second one received an emulsion of 10 mg/kg of CG-1 and 10 mg/kg of ritonavir and the third group received CG-1 in the same emulsion without ritonavir.

[3] = Permeability ex-vivo, Ussing side by side diffusion chamber; type: in vitro ADME, Wistar rats; details: Ussing model
human liver microsomes = type: in vitro ADME
Protocol: The oxidative metabolism was evaluated in pooled liver microsomes of rats and humans with or without 3 μM of ketoconazole (CYP3A4 inhibitor) (Yang et al., 2005, Biopharm Drug Dispos 26, 387-402). The microsomes were purchased from BD Biosciences (Woburn, Mass.). […] The incubation mixture (3 ml) was prepared in triplicate for each species in a 0.1 m potassium phosphate buffer (pH 7.4) containing 1 μM of substrate, 0.5 μM CYP enzymes, 1.8 mM glucose-6-phosphate and 0.4 units/ml glucose-6-phosphate dehydrogenase. After a 5 min preincubation at 37° C., the reaction was initiated by adding β-NADPH (0.15 mM final concentration). Aliquots of 0.25 ml were taken at 0, 15 and 30 min and placed into 3 volumes of icecold acetonitrile (containing an internal standard) to terminate the reaction. The samples were vortexed and centrifuged at 10000 RPM for 8 min to collect supernatant for sample analysis.

[4] = tested on: intestinal brush border enzymes; assay: Brush border membrane vesicles (BBMV) stability; type: in vitro ADME, Wistar rats; details: incubation in BBMVs at 37° C.
Protocol: Brush border membrane vesicles (BBMVs) were prepared from combined duodenum, jejunum, and upper ileum by a Ca^+2 precipitation method ([…]., 1997., Biochim Biophys Acta 1323, 45-56, […] et al. 2003., Biochem Biophys Res Commun 301, 8-12). The intestines of 5 male Wistar rats, 200-250 gr, were rinsed with ice cold 0.9% NaCl and freed of mucus; the mucosa was scraped off the luminal surface with glass slides and put immediately into buffer containing […] and 10 mM Tris-HCl (pH 7.5, 4° C.) and then homogenated (Polytron PT 1200, Kinematica AG, Switzerland). CaCl2 was added to a final concentration of 10 mM. The homogenate was left shaking for 30 min at 4° C. and then centrifuged at 10,000 g for 10 min. The supernatant was then centrifuged at 48,000 g for 30 min and an additional two purification steps were undertaken by suspending the pellet in 300 mM mannitol and 10 mM Hepes/Tris (pH 7.5) and centrifuging at […]. Purification of brush border membranes was assayed using the brush border membrane enzyme markers gamma-glutamyl transpeptidase (GGT), leucine amino peptidase (LAP) and alkaline phosphatase. During the course of these studies, enrichment in brush border membrane enzymes varied between 13- and 18-fold. The enzymatic reaction was performed as previously reported (Ovadia et al., 2009, Bioorg Med Chem 18, 580-589). […]

[5] = tested on: pseudo typed viruses that express VSV-gp instead of gp-120; type: cell-based
[6] = PO 10 mg/kg with RTV 10 mg/kg (emulsion)

## N=C(N)NCCCC1NC(=O)CCCCCC(=O)NC(Cc2ccc(O)cc2)CN(CC(N)=O)C1=O (centres unmarked) [MC-1]
HIV-1 strand HXB2
  effect on HIV-1 infection (in words): did not reduce the infectivity

## N=C(N)NCCCC1CN(CC(N)=O)C(=O)C(Cc2ccccc2)NC(=O)CCCCCC(=O)N1 (centres unmarked) [SC-1]
HIV-1 strand HXB2
  effect on HIV-1 infection (in words): weak inhibitory effect

## N=C(N)NCCCC1NC(=O)CCCCCC(=O)NC(Cc2ccccc2)CN(CC(N)=O)C1=O (centres unmarked) [CG-1]
[1]; IV bolus, 1 mg/kg
  Cmax: 0.102 ± 0.019 µg/mL
  Tmax: 5 min
[1]; PO 10 mg/kg vs IV 1 mg/kg
  Oral bioavailability: ~10%
[1]; PO, 10 mg/kg oral gavage
  AUC: 21770 ± 63 ng·min/mL
  Cmax: 0.866 ± 0.076 µg/mL
  Tmax: 18 min
[1]; printed in the PO row
  CI: 0.8718 ± 0.0198 L/h/kg
  Vss: 0.6 L/kg
[2]; [6]
  Oral bioavailability: 21±3%
  T1/2: 93 ± 8 min
  Tmax: 18 ± 2 min
[2]; PO 10 mg/kg, without ritonavir
  Oral bioavailability: 7.3±1.6%
  T1/2: 73 ± 6 min
  Tmax: 18 ± 1.5 min
[2]; with vs without ritonavir
  Cmax increase when ritonavir was added: 3 fold
[3]
  permeability coefficient (Papp) ex-vivo compared with the other analogs: significantly higher than the other analogs
[3]; distal regions (ileum, colon)
  transport in the distal regions: significantly lower
[3]; jejunum
  transport in the jejunum: significantly higher
HIV-1 strand HXB2
  effect on HIV-1 infection (in words): low μM activity
HIV-1 strand HXB2; low μM range
  inhibition of viral infection: > 80%
Human liver microsomes
  oxidative metabolism in liver microsomes: partially metabolized
Human liver microsomes; human, microsomes
  microsomal stability with ketoconazole: significantly improved its stability
[4]
  stability to enzymatic degradation in BBMVs: metabolically stable and is not degraded
[5]
  infection inhibition of VSV-gp pseudo typed viruses: did not have any effect
